Entries after “also recorded” stand apart in the source; their conditions may differ.
Experiment: In vitro enhancer release, paddle over disk method (apparatus 5, USP 23)
Type: physicochemical
Conditions: in words, in vitro and in vivo results
Experimental: The release of lauric acid and oleic acid was analyzed using paddle over disk method (apparatus 5, USP 23, Drug Release 724).
FIG. 1 schematically shown the apparatus mentioned before. In these experiments we have determined the release profiles of lauric acid and oleic acid from transdermal patches, measuring the remaining drug (by means of HPLC techniques) in samples taken at different time points.
The examples used were: Example 1; Example 2 and Example 3.
The dissolution conditions used were: paddle speed: 50 rpm; temperature: 32° C.; dissolution medium: aqueous solution of sodium dodecyl sulphate 0.3%; volume: 500 ml; sample program: 0.5; 1.0; 2.0; 4.0; 8.0 and 24 h.

Row | Compound | Release from the adhesive matrix | Release from the adhesive matrix (listed as lauric acid)
1 | CCCCCCCCCCCC(=O)O [Lauric acid] | rapid release | a great proportion of the amount of lauric acid is delivered at early times
2 | CCCCCCCC/C=C\CCCCCCCC(=O)O [oleic acid] | slow release; also recorded: delivered in small amount and is prone to remain in the adhesive monolithic matrix | 
